Test results taken from ChEMBL document CHEMBL1201862, “PubChem BioAssay data set” (2004).
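A five-concentration, 48-hour dose response in 96-well plates underlies each endpoint, interpolated linearly between surrounding concentrations. Abbreviation: GI50, concentration required for 50% inhibition of growth.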 Active and inactive are the calls of the source. Cut-off read from the data, not from the text of the source: active = GI50 up to about 1.1 µM and inactive = higher.

Legend:
Experiment in all cases: DTP human tumour cell line panel, 48 h
OVCAR-8 = test system: OVCAR-8
HCT-116 = test system: HCT-116
Malme-3M = test system: Malme-3M
786-0 = test system: 786-0
BT-549 = test system: BT-549
CAKI-1 = test system: CAKI-1
M14 = test system: M14
SNB-19 = test system: SNB-19
UO-31 = test system: UO-31
MCF7 = test system: MCF7
UACC-62 = test system: UACC-62
TK-10 = test system: TK-10
NCI-H226 = test system: NCI-H226
NCI/ADR-RES = test system: NCI/ADR-RES
RXF 393 = test system: RXF 393
MDA-MB-231 = test system: MDA-MB-231
PC-3 = test system: PC-3
SF-295 = test system: SF-295
HL-60 = test system: HL-60
SK-MEL-2 = test system: SK-MEL-2
SN12C = test system: SN12C
K562 = test system: K562
A549 = test system: A549
SR = test system: SR
MDA-MB-435 = test system: MDA-MB-435
KM12 = test system: KM12
COLO 205 = test system: COLO 205
SK-MEL-5 = test system: SK-MEL-5
DU-145 = test system: DU-145
MDA-N = test system: MDA-N
U-251 = test system: U-251
OVCAR-5 = test system: OVCAR-5
IGROV-1 = test system: IGROV-1
CCRF-CEM = test system: CCRF-CEM
HT-29 = test system: HT-29
ACHN = test system: ACHN
SF-539 = test system: SF-539
HOP-62 = test system: HOP-62
HCC 2998 = test system: HCC 2998
LOX IMVI = test system: LOX IMVI
NCI-H460 = test system: NCI-H460
SW-620 = test system: SW-620
SNB-75 = test system: SNB-75
OVCAR-4 = test system: OVCAR-4
RPMI-8226 = test system: RPMI-8226
SK-OV-3 = test system: SK-OV-3
T47D = test system: T47D
HOP-92 = test system: HOP-92
Hs-578T = test system: Hs-578T
NCI-H522 = test system: NCI-H522
HCT-15 = test system: HCT-15
UACC-257 = test system: UACC-257
SF-268 = test system: SF-268
EKVX = test system: EKVX
SK-MEL-28 = test system: SK-MEL-28
NCI-H23 = test system: NCI-H23
A498 = test system: A498
OVCAR-3 = test system: OVCAR-3
MOLT-4 = test system: MOLT-4

Compound: CCN(CC)c1ccc2cc(C(=O)Nc3cccc4ccccc34)c(=N)oc2c1
- GI50 (OVCAR-8): > 100 µM (inactive)
- GI50 (HCT-116): > 100 µM (inactive)
- GI50 (Malme-3M): 30.5 µM (inactive)
- GI50 (786-0): 16.8 µM (inactive)
- GI50 (BT-549): 24 µM (inactive)
- GI50 (CAKI-1): > 100 µM (inactive)
- GI50 (M14): 38.8 µM (inactive)
- GI50 (SNB-19): 52.8 µM (inactive)
- GI50 (UO-31): > 100 µM (inactive)
- GI50 (MCF7): > 100 µM (inactive)
- GI50 (UACC-62): 63.4 µM (inactive)
- GI50 (TK-10): > 100 µM (inactive)
- GI50 (NCI-H226): > 100 µM (inactive)
- GI50 (NCI/ADR-RES): > 100 µM (inactive)
- GI50 (RXF 393): 61 µM (inactive)
- GI50 (MDA-MB-231): > 100 µM (inactive)
- GI50 (PC-3): > 100 µM (inactive)
- GI50 (SF-295): 45.5 µM (inactive)
- GI50 (HL-60): 7.98 µM (inactive)
- GI50 (SK-MEL-2): > 100 µM (inactive)
- GI50 (SN12C): > 100 µM (inactive)
- GI50 (K562): > 100 µM (inactive)
- GI50 (A549): 75.9 µM (inactive)
- GI50 (SR): 7.96 µM (inactive)
- GI50 (MDA-MB-435): 91.8 µM (inactive)
- GI50 (KM12): > 100 µM (inactive)
- GI50 (COLO 205): > 100 µM (inactive)
- GI50 (SK-MEL-5): 43.1 µM (inactive)
- GI50 (DU-145): > 100 µM (inactive)
- GI50 (MDA-N): > 100 µM (inactive)
- GI50 (U-251): 48.4 µM (inactive)
- GI50 (OVCAR-5): > 100 µM (inactive)
- GI50 (IGROV-1): > 100 µM (inactive)
- GI50 (CCRF-CEM): > 100 µM (inactive)
- GI50 (HT-29): > 100 µM (inactive)
- GI50 (ACHN): > 100 µM (inactive)
- GI50 (SF-539): 72.9 µM (inactive)
- GI50 (HOP-62): > 10 µM (inactive)
- GI50 (HCC 2998): > 100 µM (inactive)
- GI50 (LOX IMVI): > 100 µM (inactive)
- GI50 (NCI-H460): 89.5 µM (inactive)
- GI50 (SW-620): 67 µM (inactive)
- GI50 (SNB-75): > 100 µM (inactive)
- GI50 (OVCAR-4): > 100 µM (inactive)
- GI50 (RPMI-8226): > 100 µM (inactive)
- GI50 (SK-OV-3): > 100 µM (inactive)
- GI50 (T47D): > 100 µM (inactive)
- GI50 (HOP-92): > 100 µM (inactive)
- GI50 (Hs-578T): 82 µM (inactive)
- GI50 (NCI-H522): 64 µM (inactive)
- GI50 (HCT-15): > 100 µM
- GI50 (UACC-257): > 100 µM (inactive)
- GI50 (SF-268): > 100 µM (inactive)
- GI50 (EKVX): > 100 µM (inactive)
- GI50 (SK-MEL-28): 58.5 µM (inactive)

Compound: COc1cc(/C=N/c2ccc(S(N)(=O)=O)cc2)cc(OC)c1
- GI50 (OVCAR-8): > 50 µM (inactive)
- GI50 (HCT-116): 19.8 µM (inactive)
- GI50 (Malme-3M): > 50 µM (inactive)
- GI50 (786-0): > 50 µM (inactive)
- GI50 (BT-549): > 50 µM (inactive)
- GI50 (CAKI-1): > 50 µM (inactive)
- GI50 (M14): > 50 µM (inactive)
- GI50 (SNB-19): > 50 µM (inactive)
- GI50 (UO-31): > 50 µM (inactive)
- GI50 (MCF7): 22.3 µM (inactive)
- GI50 (UACC-62): > 50 µM (inactive)
- GI50 (TK-10): > 50 µM (inactive)
- GI50 (NCI-H226): > 50 µM (inactive)
- GI50 (NCI/ADR-RES): > 50 µM (inactive)
- GI50 (RXF 393): > 50 µM (inactive)
- GI50 (MDA-MB-231): 20.1 µM (inactive)
- GI50 (PC-3): > 50 µM (inactive)
- GI50 (SF-295): > 50 µM (inactive)
- GI50 (HL-60): 13.6 µM (inactive)
- GI50 (NCI-H23): > 50 µM (inactive)
- GI50 (SK-MEL-2): > 50 µM (inactive)
- GI50 (SN12C): > 50 µM (inactive)
- GI50 (K562): 42.1 µM (inactive)
- GI50 (A549): > 50 µM (inactive)
- GI50 (SR): 16.4 µM (inactive)
- GI50 (A498): > 50 µM (inactive)
- GI50 (MDA-MB-435): 14 µM (inactive)
- GI50 (KM12): 30.1 µM (inactive)
- GI50 (COLO 205): > 50 µM (inactive)
- GI50 (SK-MEL-5): > 50 µM (inactive)
- GI50 (DU-145): > 50 µM (inactive)
- GI50 (MDA-N): 26.5 µM (inactive)
- GI50 (OVCAR-3): > 50 µM (inactive)
- GI50 (U-251): > 50 µM (inactive)
- GI50 (OVCAR-5): > 50 µM (inactive)
- GI50 (IGROV-1): 18.2 µM (inactive)
- GI50 (CCRF-CEM): 34.3 µM (inactive)
- GI50 (HT-29): > 50 µM (inactive)
- GI50 (ACHN): > 50 µM (inactive)
- GI50 (SF-539): 25.3 µM (inactive)
- GI50 (HOP-62): > 50 µM (inactive)
- GI50 (HCC 2998): > 50 µM (inactive)
- GI50 (LOX IMVI): 46.6 µM (inactive)
- GI50 (NCI-H460): > 50 µM (inactive)
- GI50 (SNB-75): 25.6 µM (inactive)
- GI50 (MOLT-4): 36.9 µM (inactive)
- GI50 (OVCAR-4): > 50 µM (inactive)
- GI50 (RPMI-8226): 28 µM (inactive)
- GI50 (SK-OV-3): > 50 µM (inactive)
- GI50 (T47D): > 50 µM (inactive)
- GI50 (HOP-92): > 50 µM (inactive)
- GI50 (Hs-578T): > 50 µM (inactive)
- GI50 (HCT-15): 29.6 µM
- GI50 (UACC-257): > 50 µM (inactive)
- GI50 (SF-268): > 50 µM (inactive)
- GI50 (EKVX): > 50 µM (inactive)
- GI50 (SK-MEL-28): > 50 µM (inactive)
